US20250366503A1, “NOVEL GLUCOPYRANOSIDE COMPOSITIONS FOR SWEETNESS ENHANCEMENT” (International Flavors & Fragrances Inc., priority 2022, published 2025)

Assay: Sweetness enhancement of sucrose by isolated compounds (flavor profile)
Settings: for Flavor Profile: 6% sucrose in water; for Enhancement of the sweetness of sweetness modifiers: general statement; for Sweetness and sugary mouthfeel enhancement: summary statement
Protocol: A sucrose solution (6%) was prepared in water and used as the base solution. Sucrose solutions of lipedoside B-IIIb, ligurobustoside E, ligurobustoside C, CPD5, ligurobustoside K ligurobustoside I and CPD6 were each prepared at 0.1-2 ppm. Flavor profiles of the sucrose solutions with added lipedoside B-IIIb, ligurobustoside E, ligurobustoside C, CPD5, ligurobustoside K and CPD6 are reported in the following: […]

| Compound | Flavor Profile (compound 2 ppm) | Enhancement of the sweetness of sweetness modifiers | Sweetness and sugary mouthfeel enhancement | Flavor Profile (compound 0.1 ppm) | Flavor Profile (compound 1 ppm) |
| --- | --- | --- | --- | --- | --- |
| C=CC(C)(CCC=C(C)C)O[C@@H]1O[C@H](CO)[C@@H](OC(=O)/C=C/c2ccc(O)c(O)c2)[C@H](O[C@@H]2O[C@@H](C)[C@H](O)[C@@H](O)[C@H]2O)[C@H]1O (stereo partly drawn) [CPD5, (2R,3R,4R,5R,6S)-6-((3,7-dimethylocta-1,6-dien-3-yl)oxy)-5-hydroxy-2-(hydroxymethyl)-4-(((2S,3R,4R,5R,6S)-3,4,5-trihydroxy-6-methyltetrahydro-2H-pyran-2-yl)oxy)tetrahydro-2H-pyran-3-yl (E)-3-(3,4-dihydroxyphenyl)acrylate] | Moderate sweetness and mouthfeel enhancement | enhance the sweetness of sweetness modifiers without undesirable off-notes | – | – | – |
| C/C(=C\CO[C@@H]1O[C@H](CO)[C@@H](OC(=O)/C=C/c2ccc(O)cc2)[C@H](O[C@@H]2O[C@@H](C)[C@H](O)[C@@H](O)[C@H]2O)[C@H]1O)C/C=C\C(C)(C)O [ligurobustoside I] | Weak sweetness and mouthfeel enhancement | – | mild sweetness and sugary mouthfeel enhancement | – | – |
| CC(C)=CCC/C(C)=C/CO[C@@H]1O[C@H](CO)[C@@H](OC(=O)/C=C/c2ccc(O)cc2)[C@H](O[C@@H]2O[C@@H](C)[C@H](O)[C@@H](O)[C@H]2O)[C@H]1O [Ligurobustoside C, ligurobustoside C] | Some upfront sweetness and mouthfeel enhancement | enhance the sweetness of sweetness modifiers without undesirable off-notes | – | – | – |
| CC(C)=CC(=O)/C=C(\C)CCO[C@@H]1O[C@H](CO)[C@@H](OC(=O)/C=C/c2ccc(O)cc2)[C@H](O[C@@H]2O[C@@H](C)[C@H](O)[C@@H](O)[C@H]2O)[C@H]1O [CPD6, (2R,3R,4R,5R,6R)-6-(((E)-3,7-dimethyl-5-oxoocta-3,6-dien-1-yl)oxy)-5-hydroxy-2-(hydroxymethyl)-4-(((2S,3R,4R,5R,6S)-3,4,5-trihydroxy-6-methyltetrahydro-2H-pyran-2-yl)oxy)tetrahydro-2H-pyran-3-yl (E)-3-(4-hydroxyphenyl)acrylate] | Weak lingering sweetness and mouthfeel enhancement | – | mild sweetness and sugary mouthfeel enhancement | – | – |
| CC(C)=CCC/C(C)=C/CO[C@@H]1O[C@H](COC(=O)/C=C/c2ccc(O)cc2)[C@@H](O)[C@H](O[C@@H]2O[C@@H](C)[C@H](O)[C@@H](O)[C@H]2O)[C@H]1O [Ligurobustoside E, ligurobustoside E] | – | enhance the sweetness of sweetness modifiers without undesirable off-notes | particularly strong sweetness and sugary mouthfeel enhancement | Sweetness enhancement, lingering sweetness | Upfront sweetness, lingering sweetness |
| ligurobustoside K | Weak sweetness and mouthfeel enhancement | – | mild sweetness and sugary mouthfeel enhancement | – | – |
| lipedoside B-IIIb | Strong upfront sweetness and sugary mouthfeel | enhance the sweetness of sweetness modifiers without undesirable off-notes | particularly strong sweetness and sugary mouthfeel enhancement | Slight sweetness enhancement, lingering sweetness | Sweetness enhancement, lingering sweetness |
